Measurements published in PubChem BioAssay AID248 (DTP/NCI, 2004).
Where “and” joins values, the source holds several entries; their conditions need not be identical. Equal entries are not always repeated. Toxic doses and inconclusive results are not listed.

Tested on: L1210 leukemia ip in BDF1 mice, survival T/C
Experiment: NCI In Vivo Anticancer Drug Screen. Data for tumor model L1210 Leukemia (intraperitoneal) in B6D2F1 (BDF1) mice
Conditions: endpoint: mean survival time, higher = longer survival
Procedure, shortened: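 Read-out is survival time, reported as the treated-group measurement over the vehicle-control measurement.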

[1] = dose: 100.0 mg/kg/injection, schedule: Q04DX003 (ip), vehicle: saline with Tween-80
[2] = dose: 200.0 mg/kg/injection, schedule: Q04DX003 (ip), vehicle: saline with Tween-80
[3] = dose: 400.0 mg/kg/injection, schedule: Q04DX003 (ip), vehicle: saline with Tween-80
[4] = dose: 100.0 mg/kg/injection, schedule: Q01DX001 (ip), vehicle: carboxymethylcellulose (CMC)
[5] = dose: 200.0 mg/kg/injection, schedule: Q01DX001 (ip), vehicle: carboxymethylcellulose (CMC)
[6] = dose: 100.0 mg/kg/injection, schedule: Q01DX001 (ip), vehicle: saline
[7] = dose: 200.0 mg/kg/injection, schedule: Q01DX001 (ip), vehicle: saline
[8] = dose: 400.0 mg/kg/injection, schedule: Q01DX001 (ip), vehicle: saline
[9] = dose: 100.0 mg/kg/injection, schedule: Q01DX009 (ip), vehicle: Klucel (hydroxypropylcellulose) (HPC)
[10] = dose: 200.0 mg/kg/injection, schedule: Q01DX009 (ip), vehicle: Klucel (hydroxypropylcellulose) (HPC)
[11] = dose: 400.0 mg/kg/injection, schedule: Q01DX009 (ip), vehicle: Klucel (hydroxypropylcellulose) (HPC)
[12] = dose: 100.0 mg/kg/injection, schedule: Q04DX003 (ip), vehicle: Klucel (hydroxypropylcellulose) (HPC)
[13] = dose: 200.0 mg/kg/injection, schedule: Q04DX003 (ip), vehicle: Klucel (hydroxypropylcellulose) (HPC)
[14] = dose: 400.0 mg/kg/injection, schedule: Q04DX003 (ip), vehicle: Klucel (hydroxypropylcellulose) (HPC)
[15] = dose: 100.0 mg/kg/injection, schedule: Q01DX009 (ip), vehicle: saline with Tween-80
[16] = dose: 200.0 mg/kg/injection, schedule: Q01DX009 (ip), vehicle: saline with Tween-80
[17] = dose: 100.0 mg/kg/injection, schedule: Q01DX001 (ip), vehicle: Klucel (hydroxypropylcellulose) (HPC)
[18] = dose: 200.0 mg/kg/injection, schedule: Q01DX001 (ip), vehicle: Klucel (hydroxypropylcellulose) (HPC)
[19] = dose: 400.0 mg/kg/injection, schedule: Q01DX001 (ip), vehicle: Klucel (hydroxypropylcellulose) (HPC)
[20] = dose: 100.0 mg/kg/injection, schedule: Q01DX009 (ip), vehicle: saline
[21] = dose: 200.0 mg/kg/injection, schedule: Q01DX009 (ip), vehicle: saline

OC/C(=C\c1ccccc1)c1ccccc1 was tested, and the T/C [1] was 92 % of control, the T/C [2] was 94 % of control and the T/C [3] was 92 % of control.
In the case of CC(C)CC(NC(=O)C(C)NC(=O)OCc1ccccc1)C(=O)NC(CC(C)C)C(=O)NCC(=O)NC1CCC2(C)C(CCC3C2CCC2(C)C(NC(=O)CNC(=O)C(CC(C)C)NC(=O)C(CC(C)C)NC(=O)C(C)NC(=O)OCc4ccccc4)CCC32)C1 (stereo not given), the T/C (dose: 100.0 mg/kg/injection, schedule: Q01DX009 (sc), vehicle: steriod suspending solution) is reported as 89 % of control, the T/C (dose: 100.0 mg/kg/injection, schedule: Q04DX003 (sc), vehicle: steriod suspending solution) is reported as 89 % of control and the T/C (dose: 200.0 mg/kg/injection, schedule: Q01DX009 (sc), vehicle: steriod suspending solution) is reported as 89 % of control. For the same compound, the T/C (dose: 200.0 mg/kg/injection, schedule: Q04DX003 (sc), vehicle: steriod suspending solution) was 103 % of control, the T/C (dose: 400.0 mg/kg/injection, schedule: Q01DX009 (sc), vehicle: steriod suspending solution) was 94 % of control and the T/C (dose: 400.0 mg/kg/injection, schedule: Q04DX003 (sc), vehicle: steriod suspending solution) was 92 % of control.
With Nc1ccccc1C(=O)O the T/C (dose: 50.0 mg/kg/injection, schedule: Q01DX001 (ip), vehicle: carboxymethylcellulose (CMC)) was 98 % of control, the T/C [4] was 91 % of control and the T/C (dose: 178.0 mg/kg/injection, schedule: Q01DX001 (ip), vehicle: carboxymethylcellulose (CMC)) was 92 % of control. The T/C [5] was 91 % of control, the T/C (dose: 267.0 mg/kg/injection, schedule: Q01DX001 (ip), vehicle: carboxymethylcellulose (CMC)) was 94 % of control and the T/C (dose: 400.0 mg/kg/injection, schedule: Q01DX001 (ip), vehicle: carboxymethylcellulose (CMC)) was 92 % of control. For the same compound, the T/C (dose: 600.0 mg/kg/injection, schedule: Q01DX001 (ip), vehicle: carboxymethylcellulose (CMC)) was 92 % of control.
In the case of CC(=O)NCCCC(=O)O, the T/C (dose: 100.0 mg/kg/injection, schedule: Q04DX003 (ip), vehicle: saline) is reported as 101 % of control, the T/C (dose: 200.0 mg/kg/injection, schedule: Q04DX003 (ip), vehicle: saline) is reported as 103 % of control and the T/C (dose: 400.0 mg/kg/injection, schedule: Q04DX003 (ip), vehicle: saline) is reported as 100 % of control.
COc1cc(N)ccc1NC(=O)c1ccccc1 was tested, and the T/C (dose: 12.5 mg/kg/injection, schedule: Q01DX001 (ip), vehicle: carboxymethylcellulose (CMC)) was 117 % of control and the T/C (dose: 25.0 mg/kg/injection, schedule: Q01DX001 (ip), vehicle: carboxymethylcellulose (CMC)) was 106 % of control.
CC1CN1CCCNC(=O)C(=O)NCCCN1CC1C (stereo not given) was tested, and the T/C (dose: 12.5 mg/kg/injection, schedule: Q04DX003 (ip), vehicle: saline) was 110 % of control and the T/C (dose: 50.0 mg/kg/injection, schedule: Q04DX003 (ip), vehicle: saline) was 168 % of control.
For O=NN(CCCl)C(=O)Nc1ccc(Cl)c(Cl)c1, the T/C (dose: 5.0 mg/kg/injection, schedule: Q01DX009 (ip), vehicle: carboxymethylcellulose (CMC)) was 121 % of control, the T/C (dose: 8.0 mg/kg/injection, schedule: Q01DX009 (ip), vehicle: carboxymethylcellulose (CMC)) was 114 % of control and the T/C (dose: 17.0 mg/kg/injection, schedule: Q01DX015 (ip), vehicle: carboxymethylcellulose (CMC)) was 114 % of control. For the same compound, the T/C (dose: 26.0 mg/kg/injection, schedule: Q01DX015 (ip), vehicle: carboxymethylcellulose (CMC)) was 163 % of control and 167 % of control, the T/C (dose: 39.0 mg/kg/injection, schedule: Q01DX015 (ip), vehicle: carboxymethylcellulose (CMC)) was 119 % of control and 121 % of control and the T/C (dose: 58.0 mg/kg/injection, schedule: Q01DX015 (ip), vehicle: carboxymethylcellulose (CMC)) was 117 % of control and 89 % of control. For the same compound, the T/C [4] was 116 % of control, the T/C [5] was 161 % of control and the T/C (dose: 300.0 mg/kg/injection, schedule: Q01DX001 (ip), vehicle: carboxymethylcellulose (CMC)) was 89 % of control.
For C(=N/N=C(/C(=N/N=C/c1ccccc1)c1ccccc1)c1ccccc1)\c1ccccc1, the T/C [6] was 94 % of control, the T/C [7] was 95 % of control and the T/C [8] was 97 % of control.
With CCC(=O)OCC1CCCO1 (stereo not given) the T/C [9] was 103 % of control, the T/C [10] was 103 % of control and the T/C [11] was 101 % of control.
For O=C(COc1ccc(Cl)cc1)Nc1ccccc1C(F)(F)F, the T/C [9] was 102 % of control and 89 % of control, the T/C [12] was 103 % of control and the T/C [10] was 100 % of control. For the same compound, the T/C [13] was 106 % of control, the T/C [11] was 98 % of control and the T/C [14] was 93 % of control.
For COc1ccc(C)cc1NC(=O)SCCSC(=O)Nc1cc(C)ccc1OC, the T/C [15] was 100 % of control and the T/C [16] was 87 % of control.
With Cc1cccc(OS(C)(=O)=O)c1N(S(C)(=O)=O)S(C)(=O)=O the T/C (dose: 50.0 mg/kg/injection, schedule: Q01DX001 (ip), vehicle: Klucel (hydroxypropylcellulose) (HPC)) was 97 % of control, the T/C [17] was 108 % of control and the T/C [18] was 95 % of control. For the same compound, the T/C [19] was 95 % of control.
For COc1ccc([N+](=O)[O-])cc1NS(=O)(=O)c1ccc(C)cc1, the T/C (dose: 50.0 mg/kg/injection, schedule: Q04DX003 (ip), vehicle: saline with Tween-80) was 95 % of control, the T/C [1] was 94 % of control and 90 % of control and the T/C [2] was 86 % of control and 92 % of control. For the same compound, the T/C [3] was 92 % of control.
In the case of Clc1ccccc1/C=N/N1CCN(/N=C/c2ccccc2Cl)CC1, the T/C [6] is reported as 97 % of control, the T/C [7] is reported as 95 % of control and the T/C [8] is reported as 101 % of control.
In the case of C=CC(=O)c1c(O)cc(O)c2c1C(C)C(=O)O2 (stereo not given), the T/C (dose: 50.0 mg/kg/injection, schedule: Q01DX001 (ip), vehicle: saline) is reported as 104 % of control, the T/C (dose: 75.0 mg/kg/injection, schedule: Q01DX009 (ip), vehicle: Klucel (hydroxypropylcellulose) (HPC)) is reported as 89 % of control and the T/C [6] is reported as 101 % of control. The T/C [12] was 106 % of control and the T/C [7] was 104 % of control.
For Cc1cc(S(=O)(=O)c2ccccc2)c(C)s1, the T/C (dose: 50.0 mg/kg/injection, schedule: Q01DX009 (ip), vehicle: saline) was 91 % of control, the T/C (dose: 50.0 mg/kg/injection, schedule: Q04DX003 (ip), vehicle: acetone) was 96 % of control and the T/C [6] was 98 % of control. The T/C [20] was 89 % of control, the T/C (dose: 100.0 mg/kg/injection, schedule: Q04DX003 (ip), vehicle: acetone) was 96 % of control and the T/C [7] was 101 % of control. For the same compound, the T/C [21] was 94 % of control and the T/C (dose: 200.0 mg/kg/injection, schedule: Q04DX003 (ip), vehicle: acetone) was 94 % of control.
With CCOC(=O)c1cnc(SC)nc1N1CCOCC1 the T/C [12] was 98 % of control, the T/C [13] was 93 % of control and the T/C [14] was 100 % of control.
CCOC(=O)CCN(CC)C(C)=O was tested, and the T/C [20] was 93 % of control, the T/C (dose: 100.0 mg/kg/injection, schedule: Q04DX003 (ip), vehicle: saline sonified) was 101 % of control and the T/C [21] was 93 % of control. The T/C (dose: 200.0 mg/kg/injection, schedule: Q04DX003 (ip), vehicle: saline sonified) was 95 % of control, the T/C (dose: 400.0 mg/kg/injection, schedule: Q01DX009 (ip), vehicle: saline) was 93 % of control and the T/C (dose: 400.0 mg/kg/injection, schedule: Q04DX003 (ip), vehicle: saline sonified) was 95 % of control.
For CCCCOc1ccc(CCOC(C)=O)cc1, the T/C (dose: 100.0 mg/kg/injection, schedule: Q04DX002 (ip), vehicle: Klucel (hydroxypropylcellulose) (HPC)) was 112 % of control, the T/C (dose: 200.0 mg/kg/injection, schedule: Q04DX002 (ip), vehicle: Klucel (hydroxypropylcellulose) (HPC)) was 108 % of control and the T/C (dose: 400.0 mg/kg/injection, schedule: Q04DX002 (ip), vehicle: Klucel (hydroxypropylcellulose) (HPC)) was 104 % of control.
O=c1oc(-c2ccccc2NS(=O)(=O)c2ccccc2)nc2cc(Cl)ccc12 was tested, and the T/C [9] was 103 % of control, the T/C [10] was 104 % of control and the T/C [11] was 110 % of control.
For C/C(=N\N=C(/C)c1ccc(Cl)cc1)c1ccc(Cl)cc1, the T/C [17] was 87 % of control, the T/C [9] was 89 % of control and 95 % of control and the T/C [12] was 89 % of control and 96 % of control. The T/C [18] was 87 % of control, the T/C [10] was 86 % of control and 95 % of control and the T/C [13] was 89 % of control and 102 % of control. For the same compound, the T/C [19] was 97 % of control, the T/C [11] was 94 % of control and the T/C [14] was 98 % of control and 93 % of control.
For CCOc1ccc(Br)cc1C=O, the T/C [15] was 97 % of control, the T/C [1] was 97 % of control and the T/C [16] was 91 % of control. The T/C [2] was 97 % of control, the T/C (dose: 400.0 mg/kg/injection, schedule: Q01DX009 (ip), vehicle: saline with Tween-80) was 91 % of control and the T/C [3] was 101 % of control.
